Results on four compounds are retold here after patent publication US11591318B2, “Bipyrazole derivatives as JAK inhibitors” (Incyte Corporation, priority 2013, dated 2023).

Counter-ions that a name gives are not always drawn.

This experiment has as its system human JAK1 (a.a. 837-1142). The experiment in a line: In vitro JAK kinase assay (HTRF), JAK1. In kind it is biochemical. Particulars: ratio of IC50 values at 1 mM ATP. As to the method: The catalytic activity of JAK1, JAK2 or JAK3 was assayed by measuring the phosphorylation of a biotinylated peptide. The phosphorylated peptide was detected by homogenous time resolved fluorescence (HTRF). […] Reactions were carried out at room temperature for 1 hour and then stopped with 20 μL 45 mM EDTA, 300 nM SA-APC, 6 nM Eu-Py20 in assay buffer (Perkin Elmer, Boston, Mass.). Binding to the Europium labeled antibody took place for 40 minutes and HTRF signal was measured on a Fusion plate reader (Perkin Elmer, Boston, Mass.).
Background: In TR-FRET formats the signal depends on donor and acceptor labels being close together.
As for `Cc1[nH]ncc1-c1cnn(C2(CC#N)CN(c3cnc(C(=O)N[C@@H](C)C(F)(F)F)cn3)C2)c1` [Example 1, 5-[3-(Cyanomethyl)-3-(3′-methyl-1H,1′H-4,4′-bipyrazol-1-yl)azetidin-1-yl]-N-[(1S)-2,2,2-trifluoro-1-methylethyl]pyrazine-2-carboxamide trifluoroacetate], the JAK2/JAK1 was over 10.

For `Cc1n[nH]cc1-c1cnn(C2(CC#N)CN(c3cnc(C(=O)NC(C)C)cn3)C2)c1` [Example 2, 5-[3-(Cyanomethyl)-3-(3′-methyl-1H,1′H-4,4′-bipyrazol-1-yl)azetidin-1-yl]-N-isopropylpyrazine-2-carboxamide trifluoroacetate], the JAK2/JAK1 is over 10. The result for `C[C@H](NC(=O)c1cc(F)c(N2CC(CC#N)(n3cc(-c4cn[nH]c4)cn3)C2)cc1F)C(F)(F)F` [Example 5, 4-[3-(1H,1′H-4,4′-Bipyrazol-1-yl)-3-(cyanomethyl)azetidin-1-yl]-2,5-difluoro-N-[(1S)-2,2,2-trifluoro-1-methylethyl]benzamide trifluoroacetate] reads over 10; that for `Cc1n[nH]cc1-c1cn(C2(CC#N)CN(c3cnc(C(=O)NC(C)C)cn3)C2)nc1C` [Example 6, 5-[3-(Cyanomethyl)-3-(3,3′-dimethyl-1H,1′H-4,4′-bipyrazol-1-yl)azetidin-1-yl]-N-isopropylpyrazine-2-carboxamide trifluoroacetate], over 10.
